# According to patent publication US20240116988A1, “ANTI-ROR1 MACROCYCLIC PEPTIDES AND COMPOSITIONS” (BRISTOL-MYERS SQUIBB COMPANY, priority 2022, published 2024):
# pIC50: −log10 of the molar value. Positions of bridges follow the written chain, without caps; N, C: chain ends. Non-standard residues stand in square brackets, D forms with d. Residues, ends and D or L forms follow the SMILES beside them. ξ: configuration not given here. NMeF = CN[C@@H](Cc1ccccc1)C(=O)O; PEG3 = NCCOCCOCCOCCC(=O)O; AEEA = NCCOCCOCC(=O)O; ξA = CC(N)C(=O)O
# Target: T1, human ROR1 (Homo sapiens, UniProt Q01973)
# T1 construct: host or cells: HEK 293T cells, Tet-on system induced with doxycycline
# Experiment: ROR1 high content cell-based binding assay
# Details: read-out: ROR1 Binding 293T Human HC Cell Based Assay IC50
# Description: ROR1 high content cell-based binding assay: Human embryonic kidney 293T cells (293T) expressing human ROR1 with Tet-on system by doxycycline were used (Arctic-488134) for the assessment of inhibition of the binding of fluorescently-labeled competing peptide (“Probe”) that specifically binds to human ROR1. […] Cryopreserved vials were thawed in a 37° C. water bath. Cells were washed in assay culture media [DMEM (Life Technologies Inc. Cat. […] Cat. No. 15140-122) and […] dox] and diluted 1.0×10^5 cells/mL. Cells were seeded into PDL-coated 384 well plates (BD Falcon Cat. No. 356663) at 2,000 cells/20 μL. Plates were allowed to incubate for 10 minutes at room temperature and then transferred to a 37° C./5% CO2 incubator for overnight incubation. The next day, 125 nL of the test compound was added using an ECHO followed by the addition of 5 μL/well of 5-FAM-labeled probe to cells at a final concentration of 30 nM. Sample were incubated for 1 hour at 37° C. for 1 hour, followed by 3 washes in […] of dPBS. Cells were fixed by adding 8% (w/v) formaldehyde (Sigma Cat. No. 252549), 20 μg/mL Hoechst (Thermo Scientific Cat. No. 62249) in PBS for 20 minutes at room temperature. The plates were washed 3 more times in dPBS and 15 μl of PBS was left in the wells following the last wash. The plates were sealed, and data was using obtained using a CellInsight NXT High Content Screening Platform IC903000 (Thermo Scientific).
# T1 sequence (Q01973 30-937): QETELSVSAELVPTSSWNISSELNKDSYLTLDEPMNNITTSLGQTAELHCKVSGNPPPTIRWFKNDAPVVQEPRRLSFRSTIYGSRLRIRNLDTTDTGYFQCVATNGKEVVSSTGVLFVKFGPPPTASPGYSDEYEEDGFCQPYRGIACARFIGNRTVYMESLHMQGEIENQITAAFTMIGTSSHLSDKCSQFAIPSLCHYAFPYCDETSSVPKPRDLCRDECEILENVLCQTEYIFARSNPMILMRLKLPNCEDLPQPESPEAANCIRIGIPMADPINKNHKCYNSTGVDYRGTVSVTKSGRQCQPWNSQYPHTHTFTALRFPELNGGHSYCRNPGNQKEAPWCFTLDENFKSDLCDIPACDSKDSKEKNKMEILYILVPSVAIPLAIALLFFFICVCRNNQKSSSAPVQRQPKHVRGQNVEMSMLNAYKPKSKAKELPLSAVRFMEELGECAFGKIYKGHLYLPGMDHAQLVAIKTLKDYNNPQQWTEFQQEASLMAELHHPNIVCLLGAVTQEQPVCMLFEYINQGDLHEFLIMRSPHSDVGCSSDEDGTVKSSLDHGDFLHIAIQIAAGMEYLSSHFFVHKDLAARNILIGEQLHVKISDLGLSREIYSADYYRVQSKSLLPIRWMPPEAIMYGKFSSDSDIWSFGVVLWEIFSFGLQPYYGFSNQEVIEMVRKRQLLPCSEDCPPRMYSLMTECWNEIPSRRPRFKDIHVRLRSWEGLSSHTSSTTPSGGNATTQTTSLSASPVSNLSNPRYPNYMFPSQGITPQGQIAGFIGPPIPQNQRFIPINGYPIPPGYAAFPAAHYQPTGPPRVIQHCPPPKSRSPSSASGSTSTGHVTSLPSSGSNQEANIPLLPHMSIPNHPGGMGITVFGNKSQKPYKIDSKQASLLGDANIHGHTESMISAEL
row,Structure (SMILES),pIC50
1,CC(C)C[C@@H]1NC(=O)[C@@H](CCC(N)=O)NC(=O)[C@H](Cc2ccccc2)N(C)C(=O)CNC(=O)[C@H](Cc2ccc(O)cc2)NC(=O)[C@H](Cc2ccccc2)NC(=O)CSC[C@@H](C(N)=O)NC(=O)[C@H](Cc2c[nH]c3ccccc23)NC(=O)[C@H](Cc2ccc(O)cc2)NC1=O [Example 1122] ({CH2CO}-FYG[NMeF][dQ]LYWC-NH2; thioether N-9),6.25
2,CC(C)C[C@@H]1NC(=O)[C@H](Cc2ccc(O)cc2)NC(=O)[C@H](Cc2ccccc2)NC(=O)CSC[C@@H](C(=O)NCC(N)=O)NC(=O)[C@H](CC(C)C)NC(=O)[C@H](Cc2ccccc2)N(C)C(=O)[C@H](Cc2ccc(O)cc2)NC(=O)[C@H](Cc2c[nH]c3ccccc23)NC(=O)CNC(=O)[C@H](CO)NC(=O)[C@H](CCCCN)NC(=O)[C@H](C(C)C)NC1=O [Example 1029] ({CH2CO}-FYLVKSGWY[NMeF]LCG-NH2; thioether N-12),6.59
3,CC(C)C[C@@H]1NC(=O)[C@H](Cc2ccc(O)cc2)NC(=O)[C@H](Cc2ccccc2)NC(=O)CSC[C@@H](C(=O)NCC(N)=O)NC(=O)[C@H](CC(C)C)NC(=O)[C@H](Cc2ccccc2)N(C)C(=O)[C@H](Cc2ccc(O)cc2)NC(=O)[C@H](Cc2c[nH]c3ccccc23)NC(=O)CNC(=O)[C@H](CO)NC(=O)[C@H](Cc2ccccc2)NC(=O)[C@H](C(C)C)NC1=O [Example 1035] ({CH2CO}-FYLVFSGWY[NMeF]LCG-NH2; thioether N-12),7.23
4,CC(C)C[C@@H]1NC(=O)[C@H](Cc2ccc(O)cc2)NC(=O)[C@H](Cc2ccccc2)NC(=O)CSC[C@@H](C(=O)NCCOCCOCCOCCC(=O)N[C@@H](CCCCN)C(N)=O)NC(=O)[C@H](CC(C)C)NC(=O)[C@H](Cc2ccccc2)N(C)C(=O)[C@H](Cc2ccc(O)cc2)NC(=O)[C@H](Cc2c[nH]c3ccccc23)NC(=O)CNC(=O)[C@H](CO)NC(=O)[C@H](Cc2ccc(O)cc2)NC(=O)[C@H](C(C)C)NC1=O [Example 1085] ({CH2CO}-FYLVYSGWY[NMeF]LC[PEG3]K-NH2; thioether N-12),7.74
5,CC(C)C[C@@H]1NC(=O)CNC(=O)[C@H](Cc2ccccc2)N(C)C(=O)CNC(=O)[C@H](Cc2ccc(O)cc2)NC(=O)[C@H](Cc2ccccc2)NC(=O)CSC[C@@H](C(N)=O)NC(=O)[C@H](Cc2c[nH]c3ccccc23)NC(=O)[C@H](Cc2ccc(O)cc2)NC1=O [Example 1105] ({CH2CO}-FYG[NMeF]GLYWC-NH2; thioether N-9),6.17
6,CC(C)C[C@@H]1NC(=O)[C@H](CC(N)=O)NC(=O)[C@H](Cc2ccccc2)N(C)C(=O)CNC(=O)[C@H](Cc2ccc(O)cc2)NC(=O)[C@H](Cc2ccccc2)NC(=O)CSC[C@@H](C(=O)NCC(N)=O)NC(=O)[C@H](Cc2c[nH]c3ccccc23)NC(=O)[C@H](Cc2ccc(O)cc2)NC1=O [Example 1100] ({CH2CO}-FYG[NMeF]NLYWCG-NH2; thioether N-9),6.92
7,CC(C)C[C@@H]1NC(=O)C(C)NC(=O)[C@H](Cc2ccccc2)N(C)C(=O)CNC(=O)[C@H](Cc2ccc(O)cc2)NC(=O)[C@H](Cc2ccccc2)NC(=O)CSC[C@@H](C(N)=O)NC(=O)[C@H](Cc2c[nH]c3ccccc23)NC(=O)[C@H](Cc2ccc(O)cc2)NC1=O (stereo partly drawn) [Example 1107] ({CH2CO}-FYG[NMeF][ξA]LYWC-NH2; thioether N-9),6.26
8,CC[C@H](C)[C@@H]1NC(=O)[C@H](Cc2ccccc2)NC(=O)CSC[C@@H](C(=O)NCC(=O)NCCOCCOCC(=O)N[C@@H](CCCCN)C(N)=O)NC(=O)[C@H](C)NC(=O)[C@H](Cc2ccccc2)NC(=O)[C@H](Cc2ccc(O)cc2)NC(=O)[C@H](Cc2c[nH]c3ccccc23)NC(=O)CNC(=O)[C@H](CCC(=O)O)NC(=O)[C@H](Cc2ccc(O)cc2)NC(=O)[C@H](C(C)C)NC(=O)[C@H](Cc2c[nH]c3ccccc23)NC1=O [Example 1081] ({CH2CO}-FIWVYEGWYFACG[AEEA]K-NH2; thioether N-12),6.75
9,CC(C)C[C@@H]1NC(=O)[C@H](Cc2c[nH]c3ccccc23)NC(=O)[C@H](Cc2ccccc2)NC(=O)[C@H](Cc2c[nH]c3ccccc23)NC(=O)CNC(=O)[C@H](CO)NC(=O)[C@H](Cc2ccc(O)cc2)NC(=O)[C@H](C(C)C)NC(=O)[C@@H]2CCCN2C(=O)[C@H](Cc2ccc(O)cc2)NC(=O)[C@H](Cc2ccccc2)NC(=O)CSC[C@@H](C(=O)NCC(N)=O)NC1=O [Example 1012] ({CH2CO}-FYPVYSGWFWLCG-NH2; thioether N-12),7.44
10,CC(C)C[C@@H]1NC(=O)[C@H](Cc2ccc(O)cc2)NC(=O)[C@H](Cc2ccccc2)NC(=O)CSC[C@@H](C(=O)NCC(N)=O)NC(=O)[C@H](CC(C)C)NC(=O)[C@H](Cc2ccccc2)N(C)C(=O)[C@H](Cc2ccc(O)cc2)NC(=O)[C@H](Cc2c[nH]c3ccccc23)NC(=O)CNC(=O)[C@H](Cc2ccc(O)cc2)NC(=O)[C@H](Cc2ccc(O)cc2)NC(=O)[C@H](C(C)C)NC1=O [Example 1045] ({CH2CO}-FYLVYYGWY[NMeF]LCG-NH2; thioether N-12),8.05
11,CC(C)C[C@@H]1NC(=O)[C@H](Cc2ccc(O)cc2)NC(=O)[C@H]([C@@H](C)O)NC(=O)CSC[C@@H](C(=O)NCC(N)=O)NC(=O)[C@H](CC(C)C)NC(=O)[C@H](Cc2ccccc2)N(C)C(=O)[C@H](Cc2ccc(O)cc2)NC(=O)[C@H](Cc2c[nH]c3ccccc23)NC(=O)CNC(=O)[C@H](CO)NC(=O)[C@H](Cc2ccc(O)cc2)NC(=O)[C@H](C(C)C)NC1=O [Example 1073] ({CH2CO}-TYLVYSGWY[NMeF]LCG-NH2; thioether N-12),6.60

# Further compounds by rising pIC50, results first:
row,pIC50,Structure (SMILES)
1,6.44,CC(C)C[C@@H]1NC(=O)[C@H](Cc2ccccc2)N(C)C(=O)[C@H](Cc2ccc(O)cc2)NC(=O)[C@H](Cc2c[nH]c3ccccc23)NC(=O)CNC(=O)[C@H](CO)NC(=O)[C@H](Cc2ccc(O)cc2)NC(=O)[C@H](C(C)C)NC(=O)[C@H](CCC(=O)O)NC(=O)[C@H](Cc2ccc(O)cc2)NC(=O)[C@H](Cc2ccccc2)NC(=O)CSC[C@@H](C(=O)NCC(N)=O)NC1=O [Example 1052] ({CH2CO}-FYEVYSGWY[NMeF]LCG-NH2; thioether N-12)
2,6.44,CC(C)C[C@@H]1NC(=O)[C@H](CCC(N)=O)NC(=O)[C@H](Cc2ccccc2)N(C)C(=O)CNC(=O)[C@H](Cc2ccc(O)cc2)NC(=O)[C@H](Cc2ccccc2)NC(=O)CSC[C@@H](C(N)=O)NC(=O)[C@H](Cc2c[nH]c3ccccc23)NC(=O)[C@H](Cc2ccc(O)cc2)NC1=O [Example 1110] ({CH2CO}-FYG[NMeF]QLYWC-NH2; thioether N-9)
3,7.19,CC(C)C[C@@H]1NC(=O)[C@H](Cc2ccccc2)NC(=O)[C@H](Cc2ccc(O)cc2)NC(=O)[C@H](Cc2c[nH]c3ccccc23)NC(=O)CNC(=O)[C@H](CO)NC(=O)[C@H](Cc2ccc(O)cc2)NC(=O)[C@H](C(C)C)NC(=O)[C@H](CC(C)C)NC(=O)[C@H](Cc2ccc(O)cc2)NC(=O)[C@H](Cc2ccccc2)NC(=O)CSC[C@@H](C(=O)NCC(N)=O)NC1=O [Example 1070] ({CH2CO}-FYLVYSGWYFLCG-NH2; thioether N-12)
4,7.42,CC(C)C[C@@H]1NC(=O)[C@H](Cc2ccc(O)cc2)NC(=O)[C@H](C(C)C)NC(=O)[C@H](CC(C)C)NC(=O)[C@H](Cc2ccc(O)cc2)NC(=O)[C@H](Cc2ccccc2)NC(=O)CSC[C@@H](C(=O)NCC(N)=O)NC(=O)[C@H](CC(C)C)NC(=O)[C@H](Cc2ccccc2)N(C)C(=O)[C@H](Cc2ccc(O)cc2)NC(=O)[C@H](Cc2c[nH]c3ccccc23)NC(=O)CNC1=O [Example 1044] ({CH2CO}-FYLVYLGWY[NMeF]LCG-NH2; thioether N-12)
5,7.52,CC(C)C[C@@H]1NC(=O)[C@H](Cc2ccc(O)cc2)NC(=O)[C@H](Cc2ccccc2)NC(=O)CSC[C@@H](C(=O)NCC(N)=O)NC(=O)[C@H](CC(C)C)NC(=O)[C@H](Cc2ccccc2)N(C)C(=O)[C@H](Cc2ccc(O)cc2)NC(=O)[C@H](Cc2c[nH]c3ccccc23)NC(=O)CNC(=O)[C@H](CCCNC(=N)N)NC(=O)[C@H](Cc2ccc(O)cc2)NC(=O)[C@H](C(C)C)NC1=O [Example 1018] ({CH2CO}-FYLVYRGWY[NMeF]LCG-NH2; thioether N-12)
6,7.77,CC(C)C[C@@H]1NC(=O)[C@H](Cc2ccccc2)N(C)C(=O)[C@H](Cc2ccc(O)cc2)NC(=O)[C@H](Cc2c[nH]c3ccccc23)NC(=O)CNC(=O)[C@H](CO)NC(=O)[C@H](Cc2ccc(O)cc2)NC(=O)[C@H](C(C)C)NC(=O)[C@H](C)NC(=O)[C@H](Cc2ccc(O)cc2)NC(=O)[C@H](Cc2ccccc2)NC(=O)CSC[C@@H](C(=O)NCC(N)=O)NC1=O [Example 1040] ({CH2CO}-FYAVYSGWY[NMeF]LCG-NH2; thioether N-12)
7,8.30,CC(C)C[C@@H]1NC(=O)[C@H](Cc2ccc(O)cc2)NC(=O)[C@H](Cc2ccccc2)NC(=O)CSC[C@@H](C(=O)NCC(N)=O)NC(=O)[C@H](CC(C)C)NC(=O)[C@H](Cc2ccccc2)N(C)C(=O)[C@H](Cc2ccc(O)cc2)NC(=O)[C@H](Cc2c[nH]c3ccccc23)NC(=O)CNC(=O)[C@H](CC(N)=O)NC(=O)[C@H](Cc2ccc(O)cc2)NC(=O)[C@H](C(C)C)NC1=O [Example 1021] ({CH2CO}-FYLVYNGWY[NMeF]LCG-NH2; thioether N-12)
